The text below walks through data of patent US8822449B2, “Substituted aminoindanes and analogs thereof, and the pharmaceutical use thereof” (Sanofi, priority 2008, dated 2014).

In this assay the target is T1, sodium-proton exchanger of subtype 3 (NHE3) (Homo sapiens, UniProt P48764).
T1 construct: expressed in transfected cells
T1 sequence (P48764 26-834): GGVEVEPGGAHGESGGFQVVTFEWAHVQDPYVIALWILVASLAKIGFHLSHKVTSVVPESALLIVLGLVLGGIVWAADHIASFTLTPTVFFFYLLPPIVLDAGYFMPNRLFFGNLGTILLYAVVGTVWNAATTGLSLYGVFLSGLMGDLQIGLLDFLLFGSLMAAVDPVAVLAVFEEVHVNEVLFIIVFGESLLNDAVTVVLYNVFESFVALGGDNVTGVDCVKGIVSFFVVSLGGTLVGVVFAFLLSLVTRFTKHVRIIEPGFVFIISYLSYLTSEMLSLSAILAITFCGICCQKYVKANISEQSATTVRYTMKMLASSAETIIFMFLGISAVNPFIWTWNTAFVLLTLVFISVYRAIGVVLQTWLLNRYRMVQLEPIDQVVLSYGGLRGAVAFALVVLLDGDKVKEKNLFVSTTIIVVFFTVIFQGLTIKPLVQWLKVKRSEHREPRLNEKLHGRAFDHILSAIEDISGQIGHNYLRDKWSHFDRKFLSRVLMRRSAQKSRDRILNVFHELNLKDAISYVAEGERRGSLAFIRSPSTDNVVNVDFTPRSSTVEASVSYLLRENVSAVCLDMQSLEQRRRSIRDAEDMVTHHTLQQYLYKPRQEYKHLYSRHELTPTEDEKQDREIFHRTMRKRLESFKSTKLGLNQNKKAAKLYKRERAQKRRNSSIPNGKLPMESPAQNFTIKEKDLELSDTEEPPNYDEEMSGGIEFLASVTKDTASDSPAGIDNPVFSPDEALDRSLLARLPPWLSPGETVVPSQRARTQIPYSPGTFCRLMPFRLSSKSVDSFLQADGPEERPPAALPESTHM
As to the kind of experiment: Recovery of intracellular pH (pHi) after acidification in LAP1 cells stably expressing NHE3 (BCECF fluorescence, FLIPR). It is filed as cell-based. The settings on record: LAP1 cells stably expressing NHE3; pH recovery after acidification; range 1 is % inhibition at 10 μM; read-out: Activity range (inhibitory effect on NHE3).

pIC50: −log10 of the molar value.

Turning to `CN(C)CCCN(C)[C@H]1Cc2ccccc2[C@@H]1Oc1ccc(S(C)(=O)=O)cc1` (racemic) [Example 669, N-[rac-trans-(1,2)-1-(4-methanesulfonylphenoxy)indan-2-yl]-N,N′,N′-trimethylpropane-1,3-diamine], the pIC50 is 5.00 to 6.00.

For `Cc1nnc(C)n1-c1ccc(O[C@H]2c3cc(Cl)cc(Cl)c3C[C@@H]2N2CC[C@@H](O)C2)c(F)c1` [Example 130, (R)-1-{trans-(1S,2S)-4,6-dichloro-1-[4-(3,5-dimethyl-[1,2,4]triazol-4-yl)-2-fluorophenoxy]indan-2-yl}pyrrolidin-3-ol], the pIC50 is greater than 6.00.

Consider `N#Cc1ccc(O[C@H]2c3ccccc3C[C@@H]2N2CCCC2)cc1` (racemic) [Example 468, 4-(rac-trans-(1,2)-2-pyrrolidin-1-ylindan-1-yloxy)benzonitrile], for which the pIC50 is 5.00 to 6.00.

Consider `O=C1CCc2c(cccc2O[C@H]2c3cc(Cl)cc(Cl)c3C[C@@H]2N2CC[C@@H](O)C2)N1` [Example 574, 5-[(1S,2S)-4,6-dichloro-2-((R)-3-hydroxypyrrolidin-1-yl)indan-1-yloxy]-3,4-dihydro-1H-quinolin-2-one], for which the pIC50 was 5.00 to 6.00.

As to `CS(=O)(=O)c1ccc(O[C@H]2c3cc(Cl)cc(F)c3C[C@@H]2N2CC[C@@H](O)C2)cc1` [Example 108, (R)-1-[trans-(1S,2S)-6-chloro-4-fluoro-1-(4-methanesulfonylphenoxy)indan-2-yl]pyrrolidin-3-ol], the pIC50 is 5.00 to 6.00.

Turning to `N[C@H]1CCCN([C@@H]2Cc3ccccc3[C@H]2Oc2cccc(CN3CCCCC3)c2)C1` (racemic) [Example 170, (S)-1-[rac-trans-(1,2)-1-(3-piperidin-1-ylmethylphenoxy)indan-2-yl]piperidin-3-ylamine], the pIC50 is 5.00 to 6.00.

As for `O=C1CSC(=O)N1c1ccc(O[C@H]2c3cc(Cl)cc(Cl)c3C[C@@H]2N2CC[C@@H](O)C2)cc1` [Example 428, 3-{4-[(1S,2S)-4,6-dichloro-2-((R)-3-hydroxypyrrolidin-1-yl)indan-1-yloxy]phenyl}thiazolidine-2,4-dione], the pIC50 is greater than 6.00.

Consider `N[C@H]1CCCN([C@H]2CCc3ccccc3[C@@H]2Oc2cccc(OC(F)F)c2)C1` (racemic) [Example 166, (S)-1-[rac-trans-(1,2)-1-(3-difluoromethoxyphenoxy)-1,2,3,4-tetrahydronaphthalen-2-yl]piperidin-3-ylamine], for which the inhibition at 10 µM fell in the range of 20 to 50%.

For `N[C@H]1CCCN([C@H]2CCc3ccccc3[C@@H]2Oc2cc(F)cc(Cl)c2)C1` (racemic) [Example 162, (S)-1-[rac-trans-(1,2)-1-(3-chloro-5-fluorophenoxy)-1,2,3,4-tetrahydronaphthalen-2-yl]piperidin-3-ylamine], the inhibition at 10 µM lay within 20 to 50%.

Consider `c1ccc2c(c1)C[C@@H](N1C[C@H]3CNC[C@H]3C1)[C@@H]2Oc1ccc(N2CCNCC2)cc1` (racemic) [Example 17, 2-[rac-trans-(1,2)-1-(4-piperazin-1-ylphenoxy)indan-2-yl]octahydropyrrolo[3,4-c]pyrrole], for which the pIC50 was 5.00 to 6.00.

For the compound `CCc1nnc(C(C)C)n1-c1ccc(O[C@H]2c3cc(Cl)cc(F)c3C[C@@H]2N2CC[C@@H](O)C2)cc1` [Example 722, (R)-1-{trans-(1S,2S)-6-Chloro-1-[4-(3-ethyl-5-isopropyl-[1,2,4]triazol-4-yl)-phenoxy]-4-fluoro-indan-2-yl}-pyrrolidin-3-ol], the pIC50 was 5.00 to 6.00.

Take `Cc1cccc(Cl)c1O[C@H]1c2ccccc2CC[C@@H]1N1CCC[C@@H](N)C1` (racemic) [Example 39, (R)-1-[rac-trans-(1,2)-1-(2-chloro-6-methylphenoxy)-1,2,3,4-tetrahydronaphthalen-2-yl]piperidin-3-ylamine]: the inhibition at 10 µM lay within 20 to 50%.

In the case of `Fc1ccc(O[C@H]2c3cc(Cl)cc(Cl)c3C[C@@H]2N2CCNCC2)c2ncccc12` [Example 592, 8-((1S,2S)-4,6-dichloro-2-piperazin-1-ylindan-1-yloxy)-5-fluoroquinoline], the inhibition at 10 µM is 20 to 50%.

On to `C[C@]1(O)CCN([C@H]2Cc3c(Cl)cc(Cl)cc3[C@@H]2Oc2ccc(S(C)(=O)=O)cc2)C1` (racemic) [Example 146, (S)-1-[(1S,2S)-4,6-dichloro-1-(4-methanesulfonylphenoxy)indan-2-yl]-3-methylpyrrolidin-3-ol], for which the pIC50 is 5.00 to 6.00.

`CC(=O)Nc1cccc(O[C@H]2c3ccc(Cl)cc3C[C@@H]2N2CCCC2)c1` (racemic) [Example 655, N-[3-(rac-trans-(1,2)-5-chloro-2-pyrrolidin-1-ylindan-1-yloxy)phenyl]acetamide]: the pIC50 is 5.00 to 6.00.

In the case of `CN1CCC2CN([C@H]3Cc4c(Cl)cc(Cl)cc4[C@@H]3Oc3ccc(S(C)(=O)=O)cc3)CC21` (single isomer, unassigned) [Example 581], the pIC50 is greater than 6.00.

Take `COc1cccc(OC)c1O[C@H]1c2ccccc2CC[C@@H]1N1CCC[C@@H](N)C1` (racemic) [Example 34, (R)-1-[rac-trans-(1,2)-1-(2,6-dimethoxyphenoxy)-1,2,3,4-tetrahydronaphthalen-2-yl]piperidin-3-ylamine]: the inhibition at 10 µM was in the range of 20 to 50%.

For `O=C(O)c1ccc(O[C@H]2c3ccccc3C[C@@H]2CN2CCCC2)cc1Cl` (racemic) [Example 390, 2-chloro-4-(2-pyrrolidin-1-ylmethylindan-1-yloxy)benzoic acid], the inhibition at 10 µM lay within 20 to 50%.

For `O=c1[nH]ccn1-c1cccc(O[C@@H]2c3ccccc3C[C@H]2N2CCCC2)c1` (racemic) [Example 254, 1-[3-(rac-trans-(1,2)-2-pyrrolidin-1-ylindan-1-yloxy)phenyl]-1,3-dihydroimidazol-2-one], the pIC50 was greater than 6.00.

Turning to `N[C@H]1CCCN([C@H]2CCc3ccccc3[C@@H]2Oc2ccc(Cl)cc2)C1` (racemic) [Example 175, (S)-1-[rac-trans-(1,2)-1-(4-chlorophenoxy)-1,2,3,4-tetrahydronaphthalen-2-yl]piperidin-3-ylamine], the inhibition at 10 µM lay within 20 to 50%.

With `O=C1COC(=O)N1c1ccc(O[C@H]2c3cc(Cl)cc(Cl)c3C[C@@H]2N2CC[C@@H](O)C2)cc1` [Example 427, 3-{4-[(1S,2S)-4,6-dichloro-2-((R)-3-hydroxypyrrolidin-1-yl)indan-1-yloxy]phenyl}oxazolidine-2,4-dione], the pIC50 is 5.00 to 6.00.

For the compound `CN1CCCN([C@H]2Cc3c(Cl)cc(Cl)cc3[C@@H]2Oc2ccc(C#N)cc2F)CC1` [Example 556, 4-[trans-(1S,2S)-4,6-dichloro-2-(4-methyl-[1,4]diazepan-1-yl)indan-1-yloxy]-3-fluorobenzonitrile], the pIC50 is greater than 6.00.

On to `COc1cccc(F)c1O[C@@H]1c2ccccc2C[C@H]1N1CCC(N)C1` (mixture of isomers) [Example 266, 1-[rac-trans-(1,2)-1-(2-fluoro-6-methoxyphenoxy)indan-2-yl]pyrrolidin-3-ylamine], for which the pIC50 was 5.00 to 6.00.

As to `CC(=O)Nc1cccc(O[C@H]2c3cc(Cl)cc(Cl)c3C[C@@H]2N2CCCC2)c1` (racemic) [Example 648, N-[3-(rac-trans-(1,2)-4,6-dichloro-2-pyrrolidin-1-ylindan-1-yloxy)phenyl]acetamide], the pIC50 is 5.00 to 6.00.

With `CS(=O)(=O)c1ccc(O[C@H]2c3cc(F)cc(Cl)c3C[C@@H]2N2CCNCC2)cc1` (racemic) [Example 283, 1-[rac-trans-(1,2)-4-chloro-6-fluoro-1-(4-methanesulfonylphenoxy)indan-2-yl]piperazine], the pIC50 is greater than 6.00.

`NC(=O)c1ccc(O[C@@H]2c3ccccc3C[C@H]2N2CCC[C@@H](N)C2)cc1` (racemic) [Example 524, 4-[rac-trans-(1,2)-2-((R)-3-aminopiperidin-1-yl)indan-1-yloxy]benzamide]: the pIC50 was greater than 6.00.

`N[C@@H]1CCCN([C@H]2CCc3ccccc3[C@@H]2Oc2ccc(Br)cc2-c2cc[nH]n2)C1` (racemic) [Example 117, (R)-1-{rac-trans-(1,2)-1-[4-bromo-2-(1H-pyrazol-3-yl)phenoxy]-1,2,3,4-tetrahydronaphthalen-2-yl}piperidin-3-ylamine]: the pIC50 is 5.00 to 6.00.

Regarding `NC1CCN([C@@H]2Cc3ccccc3[C@H]2Oc2ccnc3ccccc23)C1` (mixture of isomers) [Example 275, 1-[rac-trans-(1,2)-1-(quinolin-4-yloxy)indan-2-yl]pyrrolidin-3-ylamine], the pIC50 was 5.00 to 6.00.

On to `N#Cc1ccc(O[C@@H]2c3ccccc3C[C@H]2N2C[C@H]3CNC[C@H]3C2)cc1F` (racemic) [Example 397, 2-fluoro-4-[rac-trans-(1,2)-2-(hexahydropyrrolo[3,4-c]pyrrol-2-yl)indan-1-yloxy]benzonitrile], for which the pIC50 is 5.00 to 6.00.

For `NS(=O)(=O)c1ccc(O[C@@H]2c3ccccc3C[C@H]2NC2CCCC2)c(F)c1` (racemic) [Example 460, 4-(2-cyclopentylaminoindan-1-yloxy)-3-fluorobenzenesulfonamide], the pIC50 was greater than 6.00.
